Results taken from patent US20250127874A1, “CMV EPITOPES” (The Council of the Queensland Institute of Medical Research, priority 2016, published 2025).

System: CD8+ T cells
Test: PBMC from HSCT recipients stimulated with HLA-matched peptide epitopes, cultured two weeks with IL-2, IFN-γ production by CD8+ T cells on recall
Source text: To assess the impact of epitope variation and co-infection on IE-1 specific T cell immunity, PBMC samples from HSCT recipients showing evidence of viral reactivation were stimulated with all potentially HLA-matched variant peptide epitopes then cultured in vitro for two weeks in the presence of IL-2. PBMC from nine HSCT recipients showing immune reconstitution with no evidence of CMV reactivation were also stimulated with HLA-matched variant peptide epitopes (Table 2). As a control, PBMC were stimulated with at least two conserved HLA matched epitopes.

## EDAIAAYTL (Cytomegalovirus)
HLA B44-positive HSCT recipients with reactivation (7)
  T cell response against epitope: failed to induce a significant T cell response in any recipient

## VTEHDTTLY
Recipient 17 (HLA-B8), longitudinal analysis during and after viral reactivation
  T cell response against epitope: absence of a detectable response
